Experimental data from patent US7169803B2, “N-substituted prodrugs of fluorooxindoles” (Bristol-Myers Squibb Company, priority 2004, dated 2007).
Counter-ions that a name gives are not always drawn.

Tested on: focal cerebral ischemia (MCAO)
Test: Focal stroke model: permanent MCA/CCA occlusion, cortical infarct volume
Format: in vivo, Wistar rat
Conditions: intravenously (0.3 mg//kg) single bolus two hours after MCA occlusion; vs vehicle-treated control; measured 24 hours after MCAO
Experimental: To determine the ability of the compounds of the present invention to reduce cell loss resulting from neuronal ischemia, a standard focal cerebral ischemia is induced by permanent occlusion of the left middle cerebral artery (MCA) and common carotid artery (CCA) with one hour occlusion of the right CCA in the Wistar rat. The surgeries are performed using the sub-temporal approach of A. Tamura, et al., J. Cereb. Blood Flow Metab., 1, pp. 53–60, (1981) and its modifications [K. Osborne, et al., J. Neurol Neurosurg. Psychiatry, 50, pp. 402–410 (1987) and S. Menzies, et al., Neurosurgery, 31, pp. 100–107, (1992).]
The compound of Formula IV was evaluated in the focal stroke model involving permanent occlusion of the left MCA (MCAO) and CCA (CCAO) and temporary occlusion of the right CCA in the Wistar rat [Gribkoff, et al. Nature Med. 7, pp. 471–477 (2001)]. This procedure results in a reliably large neocortical infarct volume that is measured by means of vital dye exclusion in serial slices through the brain 24 hours after MCAO. In the present test, compounds were administered using an i.v. or i.p. route of administration two hours after occlusion.

Compound | reduction of cortical infarct volume
COc1ccc(Cl)cc1C1(F)C(=O)Nc2cc(C(F)(F)F)ccc21 (stereo not shown) [compound of Formula IV, 3-(5-chloro-2-methoxyphenyl)-3-fluoro-6-(trifluoromethyl)indolin-2-one] | about 28%

Tested on: not given
Test: not given
Conditions: cited from earlier work

Compound | aqueous solubility
COc1ccc(Cl)cc1[C@]1(F)C(=O)Nc2cc(C(F)(F)F)ccc21 [Compound of Formula (S)-IV, (S)-3-(5-chloro-2-methoxyphenyl)-3-fluoro-6-(trifluoromethyl)-indolin-2-one] | low aqueous solubility

Tested on: traumatic brain injury (TBI)
Test: not given
Conditions: rat TBI model; Cheney, et al. 2001; cited from earlier work

Compound | reductions in edema in regions adjacent to the impact zone
COc1ccc(Cl)cc1[C@]1(F)C(=O)Nc2cc(C(F)(F)F)ccc21 [Compound of Formula (S)-IV, (S)-3-(5-chloro-2-methoxyphenyl)-3-fluoro-6-(trifluoromethyl)-indolin-2-one] | significant reductions in edema

Tested on: non-BK native currents in the oocytes
Test: Effect on non-BK native currents in oocytes (current remaining in presence of IBTX)
Format: cell-based, Xenopus
Conditions: at the tested concentration
Experimental: (§1) The ability of the compound of Formula IV to open BK channels and increase whole-cell outward (K^+) BK-mediated currents was assessed under voltage-clamp conditions by determining their ability to increase cloned mammalian (mSlo or hSlo) BK-mediated outward current heterologously expressed in Xenopus oocytes [Butler, A., et al., Science, 261, pp. 221–224 (1993); and Dworetzky, S. I., et al., Mol. Brain Res., 27, pp. 189–193 (1994)]. The two BK constructs employed represent nearly structurally identical homologous proteins, and have proven to be pharmacologically identical in our tests. To isolate BK current from native (background, non-BK) current, the specific and potent BK channel-blocking toxin iberiotoxin (IBTX) [Galvez, A., et al., J. Biol. Chem, 265, pp. 11083–11090 (1990)] was employed at a supramaximal concentration (50 nM). The relative contribution of BK channels current to total outward current was determined by subtraction of the current remaining in the presence of IBTX (non-BK current) from the current profiles obtained in all other experimental conditions (control, drug, and wash). […] The compound of Formula IV was shown in at least 5 oocytes at a concentration of 10 μM to increase BK current to 170% of control of IBTX-sensitive current. […]

Compound | effect on non-BK native currents in the oocytes
COc1ccc(Cl)cc1C1(F)C(=O)Nc2cc(C(F)(F)F)ccc21 (stereo not shown) [compound of Formula IV, 3-(5-chloro-2-methoxyphenyl)-3-fluoro-6-(trifluoromethyl)indolin-2-one] | did not effect non-BK native currents

Tested on: cloned mammalian (mSlo or hSlo) BK channels heterologously expressed in Xenopus oocytes
Test: BK-mediated outward current in Xenopus oocytes, two-electrode voltage clamp
Format: cell-based
Conditions: 10 μM, at least 5 oocytes, steps from -60 mV to +140 mV
Experimental: as §1

Compound | increase BK current to % of control of IBTX-sensitive current
COc1ccc(Cl)cc1C1(F)C(=O)Nc2cc(C(F)(F)F)ccc21 (stereo not shown) [compound of Formula IV, 3-(5-chloro-2-methoxyphenyl)-3-fluoro-6-(trifluoromethyl)indolin-2-one] | 170 % of control

Tested on: not given
Test: not given
Conditions: not given

Compound | melting point
CCN(CC)CCN(CC)Cc1cccc(C(=O)OCN2C(=O)[C@@](F)(c3cc(Cl)ccc3OC)c3ccc(C(F)(F)F)cc32)c1 (as salt: hydrochloride) [Example 30, (S)-(3-(5-chloro-2-methoxyphenyl)-3-fluoro-2-oxo-6-(trifluoromethyl)indolin-1-yl)methyl 3-(((2-(diethylamino)ethyl)(ethyl)amino)methyl)benzoate, hydrochloride] | 120 to 125 °C
COc1ccc(Cl)cc1[C@]1(F)C(=O)N(C(=O)NC(C)(C)C(=O)O)c2cc(C(F)(F)F)ccc21 [Example 38, (S)-2-(3-(5-chloro-2-methoxyphenyl)-3-fluoro-2-oxo-6-(trifluoromethyl)-indoline-1-carboxamido)-2-methylpropanoic acid] | 107 to 110 °C
COc1ccc(Cl)cc1[C@]1(F)C(=O)N(C(=O)NCCC(=O)O)c2cc(C(F)(F)F)ccc21 [Example 42, (S)-3-(3-(5-chloro-2-methoxyphenyl)-3-fluoro-2-oxo-6-(trifluoromethyl)-indoline-1-carboxamido)propanoic acid] | 72 to 76 °C
COc1ccc(Cl)cc1[C@]1(F)C(=O)N(C(=O)N[C@H](C(=O)O)C(C)C)c2cc(C(F)(F)F)ccc21 [Example 39, (S)-2-((S)-3-(5-chloro-2-methoxyphenyl)-3-fluoro-2-oxo-6-(trifluoromethyl)-indoline-1-carboxamido)-3-methylbutanoic acid] | 100 to 104 °C
COc1ccc(Cl)cc1[C@]1(F)C(=O)N(COC(=O)c2cccc(CN3CCN(C)CC3)c2)c2cc(C(F)(F)F)ccc21 (as salt: hydrochloride) [Example 26] | 190 to 193 °C (dec.)
COc1ccc(Cl)cc1[C@]1(F)C(=O)N(C(=O)OCOC(=O)CCC(=O)O)c2cc(C(F)(F)F)ccc21 [Example 16, (S)-4-((3-(5-chloro-2-methoxyphenyl)-3-fluoro-2-oxo-6-(trifluoromethyl)indoline-1-carbonyloxy)methoxy)-4-oxobutanoic acid] | 68 to 71 °C (dec.)
COc1ccc(Cl)cc1[C@]1(F)C(=O)N(C(=O)N[C@@H](CCC(=O)O)C(=O)O)c2cc(C(F)(F)F)ccc21 [Example 37, (S)-2-((S)-3-(5-chloro-2-methoxyphenyl)-3-fluoro-2-oxo-6-(trifluoromethyl)-indoline-1-carboxamido)pentanedioic acid] | 90 to 94 °C
CCN(CC)Cc1ccc(C(=O)OCN2C(=O)[C@@](F)(c3cc(Cl)ccc3OC)c3ccc(C(F)(F)F)cc32)cc1 (as salt: trifluoroacetate) [Example 27, (S)-(3-(5-chloro-2-methoxyphenyl)-3-fluoro-2-oxo-6-(trifluoromethyl)indolin-1-yl)methyl 4-((diethylamino)methyl)benzoate, trifluoroacetate] | 75 to 80 °C
CCN(CC)Cc1cccc(C(=O)OCN2C(=O)[C@@](F)(c3cc(Cl)ccc3OC)c3ccc(C(F)(F)F)cc32)c1 (as salt: hydrochloride) [Example 28, (S)-(3-(5-chloro-2-methoxyphenyl)-3-fluoro-2-oxo-6-(trifluoromethyl)indolin-1-yl)methyl 3-((diethylamino)methyl)benzoate, hydrochloride] | 195 to 198 °C (dec.)
COc1ccc(Cl)cc1[C@]1(F)C(=O)N(COC(=O)c2ccc(CN3CCN(C)CC3)cc2)c2cc(C(F)(F)F)ccc21 (as salt: hydrochloride) [Example 25] | 265 to 269 °C (dec.)
COc1ccc(Cl)cc1[C@]1(F)C(=O)N(COC(=O)c2ccc(CN3CCCCC3)cc2)c2cc(C(F)(F)F)ccc21 (as salt: trifluoroacetate) [Example 31, (S)-4-Piperidin-1-ylmethyl-benzoic acid 3-(5-chloro-2-methoxy-phenyl)-3-fluoro-2-oxo-6-trifluoromethyl-2,3-dihydro-indol-1-ylmethyl ester, trifluoroacetate] | 85 to 89 °C
CC[C@H](C)[C@H](NC(=O)N1C(=O)[C@@](F)(c2cc(Cl)ccc2OC)c2ccc(C(F)(F)F)cc21)C(=O)O [Example 40, (2S,3S)-2-((S)-3-(5-chloro-2-methoxyphenyl)-3-fluoro-2-oxo-6-(trifluoromethyl)indoline-1-carboxamido)-3-methylpentanoic acid] | 88 to 92 °C
COc1ccc(Cl)cc1[C@]1(F)C(=O)N(C(=O)N[C@@H](Cc2ccccc2)C(=O)O)c2cc(C(F)(F)F)ccc21 [Example 41, (S)-2-((S)-3-(5-chloro-2-methoxyphenyl)-3-fluoro-2-oxo-6-(trifluoromethyl)-indoline-1-carboxamido)-3-phenylpropanoic acid] | 98 to 102 °C
COc1ccc(Cl)cc1[C@]1(F)C(=O)N(COC(=O)c2ccc(CN3CCOCC3)cc2)c2cc(C(F)(F)F)ccc21 (as salt: hydrochloride) [Example 23, (S)-(3-(5-chloro-2-methoxyphenyl)-3-fluoro-2-oxo-6-(trifluoromethyl)indolin-1-yl)methyl 4-(morpholinomethyl)benzoate, hydrochloride] | 174 to 178 °C
COc1ccc(Cl)cc1[C@]1(F)C(=O)N(C(=O)N[C@@H](C)C(=O)O)c2cc(C(F)(F)F)ccc21 [Example 35, (S)-2-((S)-3-(5-chloro-2-methoxyphenyl)-3-fluoro-2-oxo-6-(trifluoromethyl)-indoline-1-carboxamido)propanoic acid] | 103 to 107 °C
CCN(CC)CCN(CC)Cc1ccc(C(=O)OCN2C(=O)[C@@](F)(c3cc(Cl)ccc3OC)c3ccc(C(F)(F)F)cc32)cc1 (as salt: hydrochloride) [Example 29, (S)-(3-(5-chloro-2-methoxyphenyl)-3-fluoro-2-oxo-6-(trifluoromethyl)indolin-1-yl)methyl 4-(((2-(diethylamino)ethyl)(ethyl)amino)methyl)benzoate, hydrochloride] | 155 to 160 °C
COc1ccc(Cl)cc1[C@]1(F)C(=O)N(COC(=O)CN(C)C)c2cc(C(F)(F)F)ccc21 (as salt: hydrochloride) [Example 14, (S)-(3-(5-chloro-2-methoxyphenyl)-3-fluoro-2-oxo-6-(trifluoromethyl)indolin-1-yl)methyl 2-(dimethylamino)acetate, hydrochloride)] | 157 to 160 °C
